Target: 5-hydroxytryptamine receptor 6 (Homo sapiens, UniProt P50406)
Assay: Displacement of [3H]LSD from human 5HT6 receptor expressed in HeLa cells
Assay type: cell-based

Sequence of 5-hydroxytryptamine receptor 6 (P50406 whole entry): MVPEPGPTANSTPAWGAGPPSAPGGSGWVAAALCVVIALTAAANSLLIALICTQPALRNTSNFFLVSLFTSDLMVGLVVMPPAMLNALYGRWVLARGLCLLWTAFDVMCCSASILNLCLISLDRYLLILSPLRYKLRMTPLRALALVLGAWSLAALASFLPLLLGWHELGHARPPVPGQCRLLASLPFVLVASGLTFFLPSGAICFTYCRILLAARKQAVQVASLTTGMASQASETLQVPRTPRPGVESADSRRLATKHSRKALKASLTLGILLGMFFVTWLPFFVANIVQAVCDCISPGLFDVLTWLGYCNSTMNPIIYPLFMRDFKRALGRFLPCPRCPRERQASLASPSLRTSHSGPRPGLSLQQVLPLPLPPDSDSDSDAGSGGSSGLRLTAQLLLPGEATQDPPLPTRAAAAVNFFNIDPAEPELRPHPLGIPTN

NCCc1cn(S(=O)(=O)c2ccc(I)cc2)c2ccccc12
Ki: 14 nM

Reference: ChEMBL document CHEMBL1138245, “Discovery of N1-(6-chloroimidazo[2,1-b][1,3]thiazole-5-sulfonyl)tryptamine as a potent, selective, and orally active 5-HT(6) receptor agonist” (J Med Chem, 2007)
